Source: patent US20050208139A1 (Ascend Therapeutics, Inc., priority 2004, published 2005)

Assay: Isomerization of 4-hydroxy tamoxifen in hydroalcoholic solutions at 25°, 30° and 40° C., Z/E isomers by HPLC (Example 1)
Assay type: physicochemical
Method: Hydroalcoholic solutions containing 4-hydroxy tamoxifen were prepared, based on the following gel formula: […]
In the hydroalcoholic solutions, phosphate buffer was substituted for Klucel. The composition of the buffer was as follows:
At each of the stated concentrations, separate solutions containing Z-4-hydroxy tamoxifen or a mixture of Z- and E-4-hydroxy tamoxifen were prepared.
Each solution was subdivided into three parts in 30 ml brown glass bottles, then placed in ovens regulated at 25°, 30°, and 40° C.
The relative amounts of Z- and E-4-hydroxy tamoxifen isomers were determined at the initiation of the study and at 2-week, 1-month, 2-month, 3-month, 4-month and 5-month time points.
Operating parameters for the HPLC were as follows:
The order of elution was as follows: • 4-OHT E: retention time about 13.3 min • 4-OHT Z: retention time about 15.0 min.
Percentages of each isomer were calculated using the following formulas: [formula] [formula] D. Data fitting:
The reversible isomerization reaction and the equilibrium reaches are lied by the following relationship: [formula] where • A0=initial concentration of the reagent • Aeq=concentration of the same reagent at equilibrium • A=the concentration of A at time t • kf=forward rate constant • kr=reverse rate constant • t=time measured in months
A plot of log [formula] as a function of time gives a straight line fit with a slope of [formula] and a y-intercept of 0. E. Results

[1] = 25° C., nominal 4-hydroxy tamoxifen concentration (Z + E) in solution 0.02%
[2] = 25° C., nominal concentration (Z + E) 0.04%
[3] = 25° C., nominal concentration (Z + E) 0.06%
[4] = 25° C., nominal concentration (Z + E) 0.08%
[5] = 25° C., nominal concentration (Z + E) 0.10%
[6] = 30° C., nominal concentration (Z + E) 0.02%
[7] = 30° C., nominal concentration (Z + E) 0.04%
[8] = 30° C., nominal concentration (Z + E) 0.06%
[9] = 30° C., nominal concentration (Z + E) 0.08%
[10] = 30° C., nominal concentration (Z + E) 0.10%
[11] = 40° C., nominal concentration (Z + E) 0.02%
[12] = 40° C., nominal concentration (Z + E) 0.04%
[13] = 40° C., nominal concentration (Z + E) 0.06%
[14] = 40° C., nominal concentration (Z + E) 0.08%
[15] = 40° C., nominal concentration (Z + E) 0.10%

With `CC/C(=C(\c1ccc(O)cc1)c1ccc(OCCN(C)C)cc1)c1ccccc1` [ICI batch Bx 17] the Rate constant [1] was 0.0347 month^−1, the Rate constant [2] was 0.0484 month^−1 and the Rate constant [3] was 0.0916 month^−1. The Rate constant [4] was 0.1476 month^−1, the Rate constant [5] was 0.2169 month^−1 and the Rate constant [6] was 0.0254 month^−1. The Rate constant [7] was 0.0801 month^−1, the Rate constant [8] was 0.1563 month^−1 and the Rate constant [9] was 0.2718 month^−1. It also gave a Rate constant [10] of 0.3103 month^−1, a Rate constant [11] of 0.0722 month^−1 and a Rate constant [12] of 0.2323 month^−1. For the same molecule, the Rate constant [13] was 0.3924 month^−1, the Rate constant [14] was 0.5095 month^−1 and the Rate constant [15] was 0.6960 month^−1.
`CC/C(=C(\c1ccc(O)cc1)c1ccc(OCCN(C)C)cc1)c1ccccc1` [Batch PANCHIM 7421] showed a Rate constant [1] of 0.0225 month^−1, a Rate constant [2] of 0.0637 month^−1 and a Rate constant [3] of 0.0886 month^−1. For the same molecule, the Rate constant [4] was 0.1352 month^−1, the Rate constant [5] was 0.1827 month^−1 and the Rate constant [6] was 0.0457 month^−1. It also gave a Rate constant [7] of 0.0864 month^−1, a Rate constant [8] of 0.1487 month^−1 and a Rate constant [9] of 0.1900 month^−1. The Rate constant [10] was 0.2568 month^−1, the Rate constant [11] was 0.1097 month^−1 and the Rate constant [12] was 0.2287 month^−1. For the same molecule, the Rate constant [13] was 0.3877 month^−1, the Rate constant [14] was 0.5311 month^−1 and the Rate constant [15] was 0.6300 month^−1.
